Test results published in US8987258B2 (priority 2008, dated 2015).

Target: T1, SIRT1 (Homo sapiens, UniProt Q96EB6)
T1 sequence (Q96EB6 1-747): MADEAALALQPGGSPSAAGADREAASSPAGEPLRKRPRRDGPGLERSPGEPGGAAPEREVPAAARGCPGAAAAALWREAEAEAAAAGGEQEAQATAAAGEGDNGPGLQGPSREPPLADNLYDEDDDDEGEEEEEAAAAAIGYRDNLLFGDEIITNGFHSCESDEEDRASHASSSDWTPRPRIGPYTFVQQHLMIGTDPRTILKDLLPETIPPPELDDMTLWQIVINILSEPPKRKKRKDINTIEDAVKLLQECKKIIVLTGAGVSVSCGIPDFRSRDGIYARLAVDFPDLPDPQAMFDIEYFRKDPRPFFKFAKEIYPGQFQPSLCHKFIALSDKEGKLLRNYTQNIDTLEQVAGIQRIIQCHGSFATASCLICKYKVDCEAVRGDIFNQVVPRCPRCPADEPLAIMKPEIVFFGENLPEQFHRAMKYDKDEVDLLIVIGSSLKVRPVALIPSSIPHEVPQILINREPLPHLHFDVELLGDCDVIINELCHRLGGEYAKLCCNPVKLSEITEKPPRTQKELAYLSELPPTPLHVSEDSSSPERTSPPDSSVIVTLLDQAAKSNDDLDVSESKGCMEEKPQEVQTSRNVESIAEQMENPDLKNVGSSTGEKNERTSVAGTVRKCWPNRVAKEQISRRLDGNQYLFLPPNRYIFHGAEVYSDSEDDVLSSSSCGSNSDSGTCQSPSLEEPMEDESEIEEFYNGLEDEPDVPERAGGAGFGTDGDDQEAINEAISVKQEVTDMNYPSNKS
Assay: Mass spectrometry based SIRT1 deacetylase activation assay
Format: biochemical
Conditions: for EC1.5 μM: 0.5 μM peptide substrate, 120 μM βNAD+, 10 nM SIRT1, 25 min, 25° C.; for Emax: 25 min, mass spectrometry assay, read-out: % Fold Act. (percent maximum fold activation)
Excerpt: A mass spectrometry based assay was used to identify modulators of SIRT1 activity. The mass spectrometry based assay utilizes a peptide having 20 amino acid residues as follows: Ac-EE-K(biotin)-GQSTSSHSK(Ac)NleSTEG-K(5TMR)-EE-NH2 (SEQ ID NO: 1) wherein K(Ac) is an acetylated lysine residue and Nle is a norleucine. The peptide is labeled with the fluorophore 5TMR (excitation 540 nm/emission 580 nm) at the C-terminus. The sequence of the peptide substrate is based on p53 with several modifications. In addition, the methionine residue naturally present in the sequence was replaced with the norleucine because the methionine may be susceptible to oxidation during synthesis and purification.
The mass spectrometry assay is conducted as follows: 0.5 μM peptide substrate and 120 μM βNAD^+ is incubated with 10 nM SIRT1 for 25 minutes at 25° C. in a reaction buffer (50 mM Tris-acetate pH 8, 137 mM NaCl, 2.7 mM KCl, 1 mM MgCl2, 5 mM DTT, 0.05% BSA). Test compounds may be added to the reaction as described above. […] After the 25 minute incubation with SIRT1, 10 μL of 10% formic acid is added to stop the reaction. Reactions are sealed and frozen for later mass spec analysis. Determination of the mass of the substrate peptide allows for precise determination of the degree of acetylation (i.e. starting material) as compared to deacetylated peptide (product).
A control for inhibition of sirtuin activity is conducted by adding 1 μL of 500 mM nicotinamide as a negative control at the start of the reaction (e.g., permits determination of maximum sirtuin inhibition). A control for activation of sirtuin activity is conducted using 10 nM of sirtuin protein, with 1 μL of DMSO in place of compound, to determine the amount of deacetylation of the substrate at a given timepoint within the linear range of the assay. This timepoint is the same as that used for test compounds and, within the linear range, the endpoint represents a change in velocity.
For the above assay, SIRT1 protein was expressed and purified as follows. […] The protein was expressed by induction with 1 mM IPTG as an N-terminal His-tag fusion protein at 18° C. overnight and harvested at 30,000×g. Cells were lysed with lysozyme in lysis buffer (50 mM Tris-HCl, 2 mM Tris[2-carboxyethyl]phosphine (TCEP), 10 μM ZnCl2, 200 mM NaCl) and further treated with sonication for 10 min for complete lysis. The protein was purified over a Ni-NTA column (Amersham) and fractions containing pure protein were pooled, concentrated and run over a sizing column (Sephadex S200 26/60 global). The peak containing soluble protein was collected and run on an Ion-exchange column (MonoQ). Gradient elution (200 mM-500 mM NaCl) yielded pure protein. This protein was concentrated and dialyzed against dialysis buffer (20 mM Tris-HCl, 2 mM TCEP) overnight. The protein was aliquoted and frozen at −80° C. until further use.

EC1.5 μM | Emax [%] | Compound
A (EC1-5<1.0) | > 200 | O=C(Nc1cccc2c(=O)cc(-c3ccccc3C(F)(F)F)oc12)c1cccc(N2CCOCC2)n1 [Compound 322]
B (EC1.5 1-25 μM) | > 200 | O=C(Nc1cccc2c(=O)cc(-c3ccccc3N3CCOCC3)oc12)c1cscn1 [Compound 240]
C (EC1.5>25 μM) | < 200 | COc1ccccc1-c1cc(=O)c2cccc(NC(=O)c3cnccn3)c2o1 [Compound 254]
– | < 200 | Cc1cnc(NC(=O)c2cccc3c(=O)cc(-c4ccccc4Br)oc23)s1 [Compound 236]
A (EC1-5<1.0) | > 200 | Cn1cnc(C(=O)Nc2cccc3c(=O)cc(-c4ccccc4C(F)(F)F)oc23)c1 [Compound 256]
– | < 200 | Cc1cnc(NC(=O)c2cccc3c(=O)cc(-c4cccc(Br)c4)oc23)s1 [Compound 237]
C (EC1.5>25 μM) | < 200 | O=C(Nc1nccs1)c1cccc2c(=O)cc(-c3cccc(N4CCOCC4)c3)oc12 [Compound 208]
C (EC1.5>25 μM) | < 200 | O=C(Nc1cccnc1)c1cccc2c(=O)cc(-c3cccc(C(F)(F)F)c3)oc12 [Compound 224, 4-oxo-N-(pyridin-3-yl)-2-(3-(trifluoromethyl)phenyl)-4H-chromene-8-carboxamide]
B (EC1.5 1-25 μM) | > 200 | O=C(Nc1cccc2c(=O)cc(-c3ccccc3C(F)(F)F)oc12)c1ccncc1 [Compound 258]
B (EC1.5 1-25 μM) | > 200 | O=C(Nc1cccc2c(=O)cc(-c3cccc(N4CCOCC4)c3)oc12)c1cscn1 [Compound 212]
C (EC1.5>25 μM) | < 200 | O=C(Nc1cccc2c(=O)cc(-c3cccc(C(F)(F)F)c3)oc12)c1ccnc(OC[C@@H](O)CO)c1 [Compound 245]
C (EC1.5>25 μM) | < 200 | CS(=O)(=O)c1cccc(-c2cc(=O)c3cccc(C(=O)Nc4nccs4)c3o2)c1 [Compound 220]
C (EC1.5>25 μM) | < 200 | O=C(Nc1cccc2c(=O)cc(-c3cccc(F)c3F)oc12)c1cscn1 [Compound 289]
B (EC1.5 1-25 μM) | < 200 | O=C(Nc1cccc2c(=O)cc(-c3ccccc3C(F)(F)F)oc12)c1cccnc1 [Compound 262]
C (EC1.5>25 μM) | < 200 | Cc1cnc(NC(=O)c2cccc3c(=O)cc(-c4cccnc4C(F)(F)F)oc23)s1 [Compound 305, N-(5-methylthiazol-2-yl)-4-oxo-2-(2-(trifluoromethyl)pyridin-3-yl)-4H-chromene-8-carboxamide]
A (EC1-5<1.0) | > 200 | Cn1ccnc1C(=O)Nc1cccc2c(=O)cc(-c3ccccc3C(F)(F)F)oc12 [Compound 250]
C (EC1.5>25 μM) | < 200 | O=C(Nc1ccccn1)c1cccc2c(=O)cc(-c3cccc(N4CCOCC4)c3)oc12 [Compound 209]
C (EC1.5>25 μM) | < 200 | Cc1cnc(NC(=O)c2cccc3c(=O)cc(-c4ccccc4C(F)(F)F)oc23)s1 [Compound 276]
A (EC1-5<1.0) | > 200 | Cn1nccc1C(=O)Nc1cccc2c(=O)cc(-c3ccccc3Cl)oc12 [Compound 337]
B (EC1.5 1-25 μM) | < 200 | Cc1cnc(NC(=O)c2cccc3c(=O)cc(-c4cnccc4C(F)(F)F)oc23)s1 [Compound 310]
C (EC1.5>25 μM) | < 200 | CS(=O)(=O)c1cccc(-c2cc(=O)c3cccc(NC(=O)c4cnccn4)c3o2)c1 [Compound 219]

EC1.5 μM | Emax [%] | Compound
A (EC1-5<1.0) | > 200 | O=C(Nc1cccc2c(=O)cc(-c3ccccc3Cl)oc12)c1cccc(OCC(O)CO)n1 (stereo not shown) [Compound 334]
A (EC1-5<1.0) | > 200 | O=C(Nc1cccc2c(=O)cc(-c3ccccc3Cl)oc12)c1cccc(N2CCCC2)c1 [Compound 329]
C (EC1.5>25 μM) | < 200 | O=C(Nc1cccc2c(=O)cc(-c3cccc(C(F)(F)F)c3)oc12)c1ccc(OC[C@@H](O)CO)nc1 [Compound 247]
C (EC1.5>25 μM) | < 200 | COc1ccccc1-c1cc(=O)c2cccc(NC(=O)c3cscn3)c2o1 [Compound 255]
B (EC1.5 1-25 μM) | > 200 | O=C(Nc1cccc2c(=O)cc(-c3cnccc3C(F)(F)F)oc12)c1cscn1 [Compound 309]
B (EC1.5 1-25 μM) | < 200 | O=C(Nc1cccc2c(=O)cc(-c3c(F)cccc3F)oc12)c1cscn1 [Compound 291]
C (EC1.5>25 μM) | < 200 | Cc1cnc(NC(=O)c2cccc3c(=O)cc(-c4ccncc4)oc23)s1 [Compound 248, N-(5-methylthiazol-2-yl)-4-oxo-2-(pyridin-4-yl)-4H-chromene-8-carboxamide]
A (EC1-5<1.0) | > 200 | O=C(Nc1cccc2c(=O)cc(-c3ccccc3Cl)oc12)c1cccc(CN2CCOCC2)n1 [Compound 331]
A (EC1-5<1.0) | > 200 | O=C(Nc1cccc2c(=O)cc(-c3ccccc3C(F)(F)F)oc12)c1cccc(N2CCCC2)n1 [Compound 323]
C (EC1.5>25 μM) | < 200 | Cc1cnc(NC(=O)c2cccc3c(=O)cc(-c4cccc(F)c4F)oc23)s1 [Compound 295]
B (EC1.5 1-25 μM) | > 200 | O=C(Nc1cccc2c(=O)cc(-c3ccccc3Cl)oc12)c1cccnc1OCC(O)CO (stereo not shown) [Compound 332]
B (EC1.5 1-25 μM) | > 200 | CC(C)c1ccccc1-c1cc(=O)c2cccc(NC(=O)c3cscn3)c2o1 [Compound 287]
A (EC1-5<1.0) | > 200 | O=C(Nc1cccc2c(=O)cc(-c3ccccc3C(F)(F)F)oc12)c1cccc(CN2CCOCC2)n1 [Compound 315]
A (EC1-5<1.0) | > 200 | O=C(Nc1cccc2c(=O)cc(-c3ccccc3C(F)F)oc12)c1cccc(OCC(O)CO)n1 (stereo not shown) [Compound 338]
C (EC1.5>25 μM) | < 200 | O=C(Nc1cccc2c(=O)cc(-c3cccc(C(F)(F)F)c3)oc12)c1ccccn1 [Compound 225]
B (EC1.5 1-25 μM) | > 200 | O=C(Nc1cccc2c(=O)cc(-c3c(Cl)cccc3Cl)oc12)c1cscn1 [Compound 303]
– | < 200 | O=C(Nc1cccc2c(=O)cc(-c3cccc(Br)c3)oc12)c1cscn1 [Compound 230]
C (EC1.5>25 μM) | < 200 | O=C(Nc1cccc2c(=O)cc(-c3ccccc3C(F)(F)F)oc12)c1cncnc1 [Compound 260]
B (EC1.5 1-25 μM) | > 200 | O=C(Nc1cccc2c(=O)cc(-c3ccccc3Cl)oc12)c1cccc(CN2CCCC2)c1 [Compound 333]
A (EC1-5<1.0) | > 200 | O=C(Nc1cccc2c(=O)cc(-c3ccccc3C(F)F)oc12)c1cnccn1 [Compound 282]
